Experimental data published in article PMC6908736, “Toxic Tau Oligomers Modulated by Novel Curcumin Derivatives” (Scientific Reports, 2019).
Read-outs that look alike come from different tables or passages of the source.

What was measured:
[1] = tested on: human neuroblastoma SH-SY5Y cell line; test: MTS cytotoxicity of curcumin derivatives (dose-response); type: cell-based; parameters: LogIC50 (cell viability): unit not given here; settings: for IC50: Homo sapiens; for LogIC50 (cell viability): n = 3
From the text: Six compounds were selected due to their higher activity in modulating toxic TauO and subjected to additional in vitro testing to validate their effects on TauO (Fig. 2B). […] Compounds CL3,8 were obtained through a double aldol condensation on the diacetyl of the appropriate aromatic aldehyde 1[58]. Similarly, HemiC9 was obtained by means of Claisen-Schmidt Aldol condensation of acetone under basic conditions (Fig. 2C)[59]. Heterocyclic derivative CH8 was obtained in a two-step procedure from the corresponding cinnamic acid derivative 2 (Fig. 2D)[60]. […] This method allows the obtainment of target products avoiding the use of protecting groups. One of the criteria used to select these small molecules was evaluating their toxicity profile. The cytotoxicity of each curcumin derivative was examined by exposing the cultured human neuroblastoma SH-SY5Y cell line to a continuous range of small molecule concentrations (0–800 μM) and monitoring cell survival after 24 hours of treatment by an MTS assay. […] Human neuroblastoma SH-SY5Y cells (ATCC CRL-2266) were maintained in DMEM and grown to confluence in 96-well plates as previously described. […] The dose-response curve was used to calculate the concentration of the compound required for 50% inhibition of cell viability (IC50). Cell viability was corrected by the vehicle background. All measurements were performed in triplicate. The cytotoxic effect was determined using MTS assay (G3582, Promega) for assessing cell viability following the manufacturers’ instructions. Optical density (OD) was measured at 490 nm with POLARstar OMEGA plate reader (BMG Labtechnologies). Cell viability was calculated as the percentage of the OD value of treated cells compared to untreated controls, according to the following equation: Viability = (OD SAMPLE/OD CONTROL) × 100%.

[2] = target: T1, preformed recombinant tau oligomers (TauO) (Homo sapiens, UniProt P10636); test: Western blot of tau oligomers with and without compounds; type: biochemical; settings: curcumin 1:5 and 1:10 molar ratio
T1 construct: made in house
Experimental: The tau pellet was treated with 8 M urea followed by overnight dialysis against 1X phosphate-buffered saline (PBS) pH 7.4. Tau concentration was measured using bicinchoninic acid protein assay (Pierce BCA Protein Assay Kit, 23225, Thermo Fisher Scientific) and normalized to 1 mg/mL by adding 1X PBS. Aliquots of tau monomer in PBS were stored at -20 °C. Each 300 µL of tau stock (0.3 mg) was added to 700 µL of 1X PBS and incubated for 1 hour on an orbital shaker at room temperature. After shaking, the resulting tau oligomers were purified by fast protein liquid chromatography (FPLC, Superdex 200 Increase 10/300 column, Amersham Biosciences).
(§1) A volume of 100 μL of tau oligomers (1 µg/μL) was incubated with curcumin (1:5 and 1:10 molar ratio) and curcumin derivatives (1:5 molar ratio). Compounds were dissolved in EtOH 75%/DMSO (5:1) at a final concentration of 5 mM and diluted in 1X PBS or ddH2O for incubation or toxicity assay (final concentration 5 μM). Tau oligomers in the presence of the small molecules and controls were incubated on an orbital shaker, without stirring, for 16 hours under oligomerization conditions as previously described.
An amount of 3 µg of each sample were resolved on a pre-cast NuPAGE 4–12% Bis-Tris Gels for SDS-PAGE (NP0335BOX, Invitrogen) and transferred to nitrocellulose membranes. […]

[3] = target: T1, preformed recombinant tau oligomers (TauO); test: Direct ELISA, dot blot and filter trap of tau oligomers (T22, TOMA1, Tau 5); type: biochemical; settings: curcumin 1:5 and 1:10 molar ratio, vs untreated TauO
Experimental: as §1
Dot blot assay to detect tau oligomers in the absence or presence of small molecules was performed as previously described. Briefly, 1.5 μl of each end-product reaction was applied onto nitrocellulose membranes and then blocked with 10% nonfat milk in TBS-T overnight at 4 °C. The next day, membranes were probed with the oligomer-specific tau antibodies, T22 (1:250), TOMA1(1:200) and total tau antibody, Tau 5, (1:10000) diluted in 5% nonfat milk for 1 hour at RT. […]
ELISA assay was conducted as previously described. […] Plates were washed three times with TBS-T and developed with 3,3,5,5-tetramethylbenzidine (TMB + Substrate- Chromogen, S1599, Dako) The reaction was stopped using 100 μL of 1 M HCl and absorbance was read at 450 nm using POLARstar OMEGA plate reader. […]

[4] = tested on: SH-SY5Y cells exposed to TauO; test: MTS assay of TauO-induced toxicity in SH-SY5Y; type: cell-based, human; settings: 2 µM TauO, curcumin final concentration 10 μM, 24 hours
Experimental: Human neuroblastoma SH-SY5Y cells (ATCC CRL-2266) were maintained in DMEM and grown to confluence in 96-well plates as previously described. […] The dose-response curve was used to calculate the concentration of the compound required for 50% inhibition of cell viability (IC50).
Cell viability was corrected by the vehicle background. All measurements were performed in triplicate. The cytotoxic effect was determined using MTS assay (G3582, Promega) for assessing cell viability following the manufacturers’ instructions. Optical density (OD) was measured at 490 nm with POLARstar OMEGA plate reader (BMG Labtechnologies). Cell viability was calculated as the percentage of the OD value of treated cells compared to untreated controls, according to the following equation: Viability = (OD SAMPLE/OD CONTROL) × 100%.

[5] = MTS, 0–800 μM, 24 hours, n = 3, read-out: IC50 (cell viability)

T1 sequence (P10636 1-441 isoform P10636-8): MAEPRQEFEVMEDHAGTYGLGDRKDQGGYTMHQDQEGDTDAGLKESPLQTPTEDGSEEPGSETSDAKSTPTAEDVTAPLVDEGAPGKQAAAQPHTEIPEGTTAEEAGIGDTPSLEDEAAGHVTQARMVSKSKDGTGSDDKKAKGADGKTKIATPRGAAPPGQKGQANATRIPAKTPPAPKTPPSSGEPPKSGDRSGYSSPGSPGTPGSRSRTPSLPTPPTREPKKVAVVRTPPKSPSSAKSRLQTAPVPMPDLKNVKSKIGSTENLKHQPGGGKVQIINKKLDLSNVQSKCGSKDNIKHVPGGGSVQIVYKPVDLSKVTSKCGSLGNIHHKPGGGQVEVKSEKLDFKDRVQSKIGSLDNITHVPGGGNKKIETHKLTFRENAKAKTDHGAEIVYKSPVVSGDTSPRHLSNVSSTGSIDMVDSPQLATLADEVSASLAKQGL

Question: CN(C)c1ccc(/C=C/c2nnc(/C=C/c3ccc(N(C)C)cc3)o2)cc1 [CH8] was tested. Which IC50 [1, 5] did it give?
Answer: 110 µM

Question: What about the “LogIC50 (cell viability)” value ([1]; MTS, 0–800 μM, 24 hours) of the same compound?
Answer: 2.042

Question: With O=C(/C=C/c1ccc(F)cc1)C(=O)/C=C/c1ccc(F)cc1 [CL3] as the compound, how does the IC50 [1, 5] read?
Answer: 56.1 µM

Question: And the “LogIC50 (cell viability)” value ([1]; MTS, 0–800 μM, 24 hours)?
Answer: 1.749

Question: Which IC50 [1, 5] does the source give for O=C(/C=C/c1ccccc1Cl)C(=O)/C=C/c1ccccc1Cl [CL8] here?
Answer: 54.5 µM

Question: What about the “LogIC50 (cell viability)” value ([1]; MTS, 0–800 μM, 24 hours) of the same compound?
Answer: 1.737

Question: O=C(/C=C/c1ccc(Cl)cc1)COC(=O)/C=C/c1ccc(Cl)cc1 [Cal7] was tested. Which IC50 ([1]; 24 h, read-out: IC50 (cell viability)) did it give?
Answer: 191 µM

Question: And the “LogIC50 (cell viability)” value ([1]; MTS, 0–800 μM, 24 hours)?
Answer: 2.281

Question: With CC(=O)/C=C/c1ccc(C)cc1 [HemiC9] as the compound, how does the IC50 [1, 5] read?
Answer: 124 µM

Question: COc1cc(/C=C/C(=O)CC(=O)/C=C/c2ccc(O)c(OC)c2)ccc1O [curcumin] was tested. Which “aggregation state of TauO by Western blot (T22, Tau 5, Tau 13)” value [2] did it give?
Answer: promoting the formation of higher molecular weight tau aggregates

Question: And the “oligomer level, T22 immunoreactivity (direct ELISA and dot blot)” value [3]?
Answer: significant decrease in oligomers

Question: And the “cell viability after TauO in the presence of compound” value [4]?
Answer: rescued cells from TauO-induced toxicity
